Reference: article PMC5892710 (Nature chemical biology, 2017)

Target: T1, Etr1p (Candida tropicalis, UniProt Q8WZM3)
T1 sequence (Q8WZM3 23-386): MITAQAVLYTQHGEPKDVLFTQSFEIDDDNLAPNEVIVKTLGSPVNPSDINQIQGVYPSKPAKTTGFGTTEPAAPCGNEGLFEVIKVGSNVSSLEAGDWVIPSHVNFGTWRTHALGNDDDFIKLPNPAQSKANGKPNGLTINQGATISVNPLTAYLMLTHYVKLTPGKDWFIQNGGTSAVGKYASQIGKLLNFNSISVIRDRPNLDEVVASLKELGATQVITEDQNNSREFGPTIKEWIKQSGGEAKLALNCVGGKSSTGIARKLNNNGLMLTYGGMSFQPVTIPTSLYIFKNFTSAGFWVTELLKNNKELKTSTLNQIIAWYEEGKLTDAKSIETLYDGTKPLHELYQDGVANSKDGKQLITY
Assay: isothermal titration calorimetry
Format: binding
Details: 150 mM NaCl, 20 mM Tris-HCl pH 7.9; association constant

- binding constant: 3.8 ± 1.0 ·10^5
SMILES: NC(=O)C1=CN([C@@H]2O[C@H](COP(=O)(O)OP(=O)(O)OC[C@H]3O[C@@H](n4cnc5c(N)ncnc54)[C@H](OP(=O)(O)O)[C@@H]3O)[C@@H](O)[C@H]2O)C=CC1 [NADPH]
